Assay results taken from patent publication US4569937A, “Analgesic mixture of oxycodone and ibuprofen” (priority 1985, dated 1986).
Where two headings read alike, the source gives them in different places.

System: phenyl-p-benzoquinone induced writhing in mice
Format: in vivo, mice (male CF1)
Conditions: oral, N=43 mice/dose; for % MICE BLOCKED: 5 min

Row | Structure (SMILES) | % MICE BLOCKED (oxycodone HCl 0.36 mg/kg) | % MICE BLOCKED (oxycodone HCl 0.72 mg/kg) | % MICE BLOCKED (oxycodone HCl 1.44 mg/kg) | % MICE BLOCKED (oxycodone HCl 2.88 mg/kg) | % MICE BLOCKED (oxycodone HCl 5.76 mg/kg) | ED50 AT 5 MIN, Oxycodone (95% Confidence Limits) (oxycodone HCl part of the ED50 dose (alone or at fixed ratio oxycodone:ibuprofen)) | % MICE BLOCKED (ibuprofen 2.25 mg/kg) | % MICE BLOCKED (ibuprofen 4.49 mg/kg) | % MICE BLOCKED (ibuprofen 8.98 mg/kg) | % MICE BLOCKED (ibuprofen 17.96 mg/kg) | ED50 AT 5 MIN, Ibuprofen (95% Confidence Limits) (ibuprofen part of the ED50 dose (alone or at fixed ratio oxycodone:ibuprofen))
1 | COc1ccc2c3c1O[C@H]1C(=O)CC[C@@]4(O)[C@@H](C2)N(C)CC[C@]314 [Oxycodone] | 11.6% | 4.7% | 39.5% | 81.4% | 95.3% | 1.88 mg/kg | – | – | – | – | –
2 | CC(C)Cc1ccc(C(C)C(=O)O)cc1 (stereo not drawn) [Ibuprofen, α-methyl-4-(2-methylpropyl)benzeneacetic acid] | – | – | – | – | – | – | 7.0% | 11.6% | 20.1% | 62.8% | 15.8 mg/kg
